# Measurements as given in US12702692B2, “Therapeutic use of calcium-activated chloride channel peptide activator” (CENTRE NATIONAL DE LA RECHERCHE SCIENTIFIQUE, priority 2020, dated 2026).
# Assays:
# [1] = Acute effect on tear fluid secretion (tearing rate, phenol red thread) in naive rats; type: in vivo, Sprague-Dawley rats
# Experimental: Sprague-Dawley rats (males, around 200 g) were purchased from Charles River and adapted one week before processing the experiment. Two-three rats per cage were housed in a controlled environment of 12 hours intervals of light/dark cycles and free access to food and water. Animal experiments were approved by the Animal Care and Use Committee of the University of Barcelona (CEEA) and the […] de Territori i Sostenibilitat of Generalitat de Catalunya, Catalonia, Spain (319/19; 10935) and followed the ethical guidelines of the International Association for the Study of Pain. […] (also named Nter 13 peptide or […] NO: 2)) and scramble ([…] NO: 7)) peptides were purchased from GenScript Biotech (Leiden, Netherlands) and provided by CNRS. Both peptides were dissolved in Phosphate Buffered Saline (PBS) at 10 mM and used for topical ocular application (5 ul per eye). Tear fluid secretion (tearing rate) was measured using phenol red threads (Zone-Quick, Menicon, Nagoya, Japan) placed on the lower eyelid for 30 s without topical anesthesia (Trost, 2007; Acosta 2013). Tearing rate was determined with an accuracy of ±0.5 mm by measurement of the length of the red portion of the thread. After habituation of the animals, basal tearing rate was measured in both eyes before any topical application of peptides. Then, animals were divided in different groups and a solution containing vehicle (PBS), amiloride (1 mM), peptide N13 or peptide scramble was topically applied to the ocular surface (5 μl) and tearing rate was measured at 1, 3, 6, 12 and 24 h. Tearing rate measurements were done blind to the treatment received by the animals. Data are presented as mean±standard error of the mean (SEM). Statistical differences between different sets of data were assessed by performing repeated measured One-way ANOVA plus Bonferroni's post-tests (each data point in an experimental group vs. basal values) or repeated measured Two-way ANOVA plus Bonferroni's post-tests (each data point in […] group vs. Scramble or Vehicle group; or point in […] or amiloride groups vs. Vehicle group) using Prism 9 (GraphPad Software, San Diego, CA). The significance level was set at p<0.05 in all statistical analyses.
# [2] = Tear fluid secretion in dry eye model (surgical removal of exorbital lachrymal gland); type: in vivo, Sprague-Dawley rats; conditions: N13ter 10 mM topical
# Experimental: Sprague-Dawley rats (males, around 200 g) were purchased from Charles River and adapted one week before processing the experiment. Two-three rats per cage were housed in a controlled environment of 12 hours intervals of light/dark cycles and free access to food and water. Animal experiments were approved by the Animal Care and Use Committee of the University of Barcelona (CEEA) and the Departament de Territori i Sostenibilitat of Generalitat de Catalunya, Catalonia, Spain (319/19; 10935) and followed the ethical guidelines of the International Association for the Study of Pain.
# N13ter (also named Nter 13 peptide or N13) ([…] (SEQ ID NO: 2)) and scramble ([…] (SEQ ID NO: 7)) peptides were purchased from GenScript Biotech (Leiden, Netherlands) and provided by CNRS. Both peptides were dissolved in Phosphate Buffered Saline (PBS) at 10 mM and used for topical ocular application (5 ul per eye).
# Tear fluid secretion (tearing rate) was measured using phenol red threads (Zone-Quick, Menicon, Nagoya, Japan) placed on the lower eyelid for 30 s without topical anesthesia (Trost, 2007; Acosta 2013). Tearing rate was determined with an accuracy of ±0.5 mm by measurement of the length of the red portion of the thread.
# To establish a dry eye model, a similar procedure to those previously described was used (Callejo 2015, Pain; 156(3):483-495, Kovacs, 2016, Pain.; 157(2):399-417). Rats were intraperitoneally anaesthetized with ketamine/xylacine (80:10 mg/kg). […] Tear fluid secretion was measured in both eyes before (basal) and once a week at 1, 2, 3 and 4 weeks after surgery using phenol red threads (Zone-Quick, Menicon, Nagoya, Japan) placed on the lower eyelid for 30 s without topical anesthesia (Trost, 2007; Acosta 2013). Tearing rate was determined with an accuracy of ±0.5 mm by measurement of the length of the red portion of the thread. After tearing rate measurement on week 4, animals were divided in two groups and a solution containing one of the peptides (N13ter or PBS) was topically applied to the ocular surface (5 μl) and tearing rate was measured at 1, 3, 6, 12 and 24 h. […]
sequence,measurement,setting,value
LARRSPRSSDGKL (SEQ ID NO: 2) (amino acid residues between positions 30 to 42 of the human KCNE1 protein sequence) [N13ter],tearing rate at 6 h,"[1]; 10 mM topical, 5 μl per eye, n=20 eyes, basal 7.65±0.49 mm (N13ter)",9.65±0.57 mm
same,tearing rate at 12 h,"[1]; 10 mM topical, 5 μl per eye, n=20 eyes, basal 7.65±0.49 mm (N13ter), 8.10±0.54 mm (Scramble)",8.85±0.73 mm
same,tearing rate at 12 h,"[1]; N13ter 10 mM topical, vehicle/amiloride study, n=12 eyes, basal 4.53±0.43",6.66±0.64 mm
same,time after application at which the enhancing effect becomes significant,[1]; N13ter 10 mM vs scramble peptide,6 to 12 h
same,effect on tearing rate compared with Vehicle,"[1]; N13ter 10 mM, amiloride 1 mM, vehicle PBS",significant increase in tearing rate
same,effect on tearing rate,"[1]; N13ter vs Scramble study, both 10 mM topical",small but significant increase in tearing rate
same,"effect on tearing rate vs vehicle, pooled data","[1]; all N13ter 10 mM studies pooled, n=32 eyes, normalized to basal","statistically significant effect at 1, 3, 6, 12 and 24 h, obtaining the maximal increase at 6 and 12 h"
same,effect on tearing rate vs vehicle,[2],statistically significant compared to vehicle group
same,time to return to basal values,[2],≤ 24 h
same,tearing rate at 3 h (peak),"[2]; n=14 eyes, 5 weeks basal 4.04±0.49 mm",6.54±0.78 mm
